Tested on: Angiostrongylus cantonensis
Assay: Detection of worm stages in the brain of Wistar rats experimentally infected with Angiostrongylus cantonensis after oral treatment
Type: in vivo
Procedure: Each rat was infected with precisely 60 L3 larvae. From day 5 post-infection onwards, mebendazole was administered once daily on three successive days at the dosage rates and in the formulations stated. The worms were detected on day 21 post-infection.

COC(=O)Nc1nc2ccc(C(=O)c3ccccc3)cc2[nH]1 [Mebendazole, mebendazole]
Worm detection in the brain (aqueous suspension, mebendazole 10 mg/kg body weight oral, once daily on three successive days from day 5 post-infection, worms detected day 21, % of infection control (55 worms = 100%)): 98.2% | Worm reduction in the brain (mebendazole with the aid of the carrier system, at a more than 30-fold reduced mebendazole dose): significant worm reduction in the brain

Reference: patent US7652071B2, “Penetration of active substances into cells and organs” (Alpha-Biocare GmbH, priority 2003, dated 2010)
